Data set [1] deals with T1, ENL YEATS domain (Homo sapiens, UniProt Q03111).
T1 sequence (Q03111 1-148): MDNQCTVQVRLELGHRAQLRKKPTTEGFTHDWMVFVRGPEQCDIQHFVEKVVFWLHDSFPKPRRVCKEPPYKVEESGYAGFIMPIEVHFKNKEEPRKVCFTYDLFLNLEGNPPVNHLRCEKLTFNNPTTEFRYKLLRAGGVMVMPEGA
In words: ENL-H3K27cr HTRF. In general terms: Time-resolved FRET reads energy transfer from a long-lived donor to a nearby acceptor.

The target in the next data set is ENL(YEATS)-HiBiT (Homo sapiens, UniProt Q03111). In words: ENL. The class given is cell-based.
For data set [2], the target named is T2, ENL (Homo sapiens, UniProt Q03111).
T2 sequence (Q03111 1-559): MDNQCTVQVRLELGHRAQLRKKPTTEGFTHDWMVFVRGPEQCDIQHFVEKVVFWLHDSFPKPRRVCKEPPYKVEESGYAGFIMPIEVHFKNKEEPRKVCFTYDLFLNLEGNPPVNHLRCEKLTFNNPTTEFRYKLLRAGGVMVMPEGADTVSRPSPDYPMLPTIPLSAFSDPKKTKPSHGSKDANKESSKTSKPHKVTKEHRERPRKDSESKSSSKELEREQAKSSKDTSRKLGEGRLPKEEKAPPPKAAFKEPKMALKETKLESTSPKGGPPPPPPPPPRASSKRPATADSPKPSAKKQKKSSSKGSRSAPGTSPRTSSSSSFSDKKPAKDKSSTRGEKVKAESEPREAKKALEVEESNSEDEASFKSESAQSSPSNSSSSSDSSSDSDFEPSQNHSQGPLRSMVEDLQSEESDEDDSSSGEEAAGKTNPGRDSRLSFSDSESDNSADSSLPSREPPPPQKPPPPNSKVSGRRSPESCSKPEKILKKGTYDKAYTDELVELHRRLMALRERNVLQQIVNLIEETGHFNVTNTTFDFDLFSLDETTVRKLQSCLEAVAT
In words: ENL degradation by immunoblot. The class given is cell-based. To be noted: for DC50: read-out: ENL DC50, 4 h treatment. Background: A western blot detects proteins with antibodies after separation by electrophoresis.

In a further data set the target is AF9 (V5) (Homo sapiens, UniProt P42568). Briefly: AF9-V5 degradation by immunoblot in MOLM-13 cells. The class given is cell-based. To be noted: 4 h treatment.
AF9 (V5), sequence (P42568 whole entry): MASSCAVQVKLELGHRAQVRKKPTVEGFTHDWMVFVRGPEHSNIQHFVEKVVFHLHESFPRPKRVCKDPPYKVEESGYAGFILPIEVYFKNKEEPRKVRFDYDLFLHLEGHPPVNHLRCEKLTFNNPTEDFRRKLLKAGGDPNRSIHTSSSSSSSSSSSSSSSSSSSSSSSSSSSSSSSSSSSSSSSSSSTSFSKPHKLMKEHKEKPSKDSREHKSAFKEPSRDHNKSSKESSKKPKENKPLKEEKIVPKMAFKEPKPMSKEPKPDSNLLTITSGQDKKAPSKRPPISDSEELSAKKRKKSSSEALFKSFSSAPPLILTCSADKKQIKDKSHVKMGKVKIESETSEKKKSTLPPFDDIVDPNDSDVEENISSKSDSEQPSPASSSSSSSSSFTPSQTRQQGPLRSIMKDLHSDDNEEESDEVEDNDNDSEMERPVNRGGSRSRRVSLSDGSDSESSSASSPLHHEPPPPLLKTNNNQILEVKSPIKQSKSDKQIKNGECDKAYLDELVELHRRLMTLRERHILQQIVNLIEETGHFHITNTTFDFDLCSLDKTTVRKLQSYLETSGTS
Data set [3] has as its system MV4;11 cells. Briefly: TMT-based whole proteome analysis of MV4. The class given is cell-based, human. To be noted: 10 μM.
The next data set deals with BRD4 BD1 (Homo sapiens, UniProt O60885). Briefly: BRD4 BD1 HTRF counter-screen. It counts as binding.
The target of a further data set is AF9(YEATS)-HiBiT (Homo sapiens, UniProt P42568). In words: AF9. It counts as cell-based.
AF9(YEATS)-HiBiT, sequence (P42568 1-138 limits assumed): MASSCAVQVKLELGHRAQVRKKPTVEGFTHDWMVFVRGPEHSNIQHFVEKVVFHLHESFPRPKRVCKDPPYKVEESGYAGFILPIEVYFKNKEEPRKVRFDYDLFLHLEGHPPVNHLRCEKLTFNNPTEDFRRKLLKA
The target of a further data set is AF9 YEATS domain (Homo sapiens, UniProt P42568). In words: AF9 YEATS HTRF. It counts as binding.
AF9 YEATS domain, sequence (P42568 1-138 limits assumed): as above
The test system of data set [4] is MV4;11 cells. In words: qRT-PCR transcript abundance in MV4. The class given is cell-based, human. (Quantitative PCR measures a nucleic acid by following its amplification.)
For data set [5], the system named is MV4;11 cells. Briefly: Quant-seq 3′ mRNA sequencing in MV4. The class given is cell-based, human. To be noted: MV4;11, 4 h.
In another data set the test system is MOLM-13. Briefly: Cell proliferation assay. It counts as cell-based. To be noted: MOLM-13 (MLL-AF9 AML), ∼2 weeks.
Data set [6] deals with T2, ENL. In words: ENL ChIP-qPCR / ChIP-seq in MV4.
The subject of the next data set is HL-60. Briefly: Cell proliferation assay. The class given is cell-based. The following applies: HL-60 (MLL wild-type AML), ENL-insensitive.
Data set [7] has as its target T1, ENL YEATS domain. To be noted: 1 μM.
The subject of the next data set is OCI/AML-2. Briefly: Cell proliferation assay. It counts as cell-based. The following applies: OCI/AML-2 (MLL-AF6 AML), ∼2 weeks.
In the next data set the test system is HB11;19. Briefly: Cell proliferation assay. The class given is cell-based. To be noted: HB11;19 (MLL-ENL fusion), ∼2 weeks.
For a further data set, the system named is 786-O. In words: Cell proliferation assay. To be noted: 786-O (renal cell carcinoma), 10 μM. It counts as cell-based.
The next data set relates to MOLT-4. In words: Cell proliferation assay. To be noted: MOLT-4 (T-cell ALL), up to 10 μM. The class given is cell-based.
In the next data set the test system is 468 kinases. In words: KINOMEscan profiling. The following applies: 10 μM, 468 kinases tested.
In the next data set the test system is 32 bromodomains. Briefly: BROMOscan profiling. To be noted: 10 μM.
Data set [8] deals with YSK4 (also known as MAP3K19) (Homo sapiens, UniProt Q56UN5). Briefly: KdELECT affinity determination of scanMAX hits. It counts as binding.
YSK4 (also known as MAP3K19), sequence (Q56UN5 whole entry): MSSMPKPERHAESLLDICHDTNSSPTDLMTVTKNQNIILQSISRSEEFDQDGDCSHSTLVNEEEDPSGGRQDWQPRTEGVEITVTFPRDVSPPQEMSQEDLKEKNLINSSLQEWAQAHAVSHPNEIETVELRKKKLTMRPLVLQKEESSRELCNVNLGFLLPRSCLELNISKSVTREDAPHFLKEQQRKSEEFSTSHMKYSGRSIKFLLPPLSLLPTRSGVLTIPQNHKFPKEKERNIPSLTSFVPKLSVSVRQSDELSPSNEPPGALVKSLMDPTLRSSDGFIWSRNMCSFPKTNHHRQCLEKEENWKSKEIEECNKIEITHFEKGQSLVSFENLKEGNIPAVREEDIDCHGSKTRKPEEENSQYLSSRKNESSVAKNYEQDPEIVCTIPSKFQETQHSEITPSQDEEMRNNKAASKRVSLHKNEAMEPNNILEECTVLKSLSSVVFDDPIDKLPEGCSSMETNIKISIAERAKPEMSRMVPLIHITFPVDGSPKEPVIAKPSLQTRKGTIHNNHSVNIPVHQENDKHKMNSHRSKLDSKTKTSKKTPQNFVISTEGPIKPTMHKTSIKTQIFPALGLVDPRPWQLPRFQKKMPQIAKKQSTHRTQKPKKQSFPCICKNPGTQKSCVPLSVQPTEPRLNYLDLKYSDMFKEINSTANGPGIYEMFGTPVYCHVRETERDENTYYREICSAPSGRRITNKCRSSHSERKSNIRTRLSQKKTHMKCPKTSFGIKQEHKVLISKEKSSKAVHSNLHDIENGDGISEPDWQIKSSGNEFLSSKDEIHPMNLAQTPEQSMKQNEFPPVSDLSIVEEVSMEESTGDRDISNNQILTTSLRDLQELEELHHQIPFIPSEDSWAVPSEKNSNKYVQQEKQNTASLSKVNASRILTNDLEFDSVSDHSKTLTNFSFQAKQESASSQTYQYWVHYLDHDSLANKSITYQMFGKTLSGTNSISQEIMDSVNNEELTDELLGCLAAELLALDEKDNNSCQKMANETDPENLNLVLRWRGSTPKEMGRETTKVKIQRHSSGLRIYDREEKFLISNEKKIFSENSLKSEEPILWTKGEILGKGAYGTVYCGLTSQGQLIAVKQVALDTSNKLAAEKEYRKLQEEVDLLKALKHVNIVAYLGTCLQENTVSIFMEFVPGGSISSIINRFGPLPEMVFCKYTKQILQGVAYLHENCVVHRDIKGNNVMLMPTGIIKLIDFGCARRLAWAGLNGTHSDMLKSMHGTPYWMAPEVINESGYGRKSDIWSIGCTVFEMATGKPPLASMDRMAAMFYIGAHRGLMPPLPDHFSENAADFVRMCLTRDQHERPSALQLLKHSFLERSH
A further data set relates to JURKAT. In words: Cell proliferation assay. The class given is cell-based. To be noted: JURKAT (T-cell ALL), ENL-insensitive.
Another data set has as its target YEATS4 YEATS domain (Homo sapiens, UniProt O95619). In words: SPR, biotinylated YEATS4 YEATS. It counts as binding.
Another data set concerns the target YEATS2 YEATS domain (Homo sapiens, UniProt Q9ULM3). In words: Modified histone peptide array, YEATS2 YEATS. The following applies: 10 and 50 μM.
Data set [9] concerns MV4;11 cells. Briefly: 72 h viability assay. It counts as cell-based, human. The following applies: MV4;11, 72 h.
A further data set relates to MV4;11. Briefly: Cell proliferation assay. It counts as cell-based, human. To be noted: MV4;11 (MLL-AF4 AML), ∼2 weeks.
For data set [10], the system named is MV4;11 cells. Briefly: Cell cycle analysis. The class given is cell-based, human. To be noted: MV4;11, 72 h.
Setting [11] is: ENL-H3K27cr HTRF IC50, purified compound.

Structures are written as SMILES. Entries after “also recorded” stand apart in the source; their conditions may differ. Read-outs that look alike come from different tables or passages of the source.

YEATS4 YEATS domain, sequence (O95619 13-158): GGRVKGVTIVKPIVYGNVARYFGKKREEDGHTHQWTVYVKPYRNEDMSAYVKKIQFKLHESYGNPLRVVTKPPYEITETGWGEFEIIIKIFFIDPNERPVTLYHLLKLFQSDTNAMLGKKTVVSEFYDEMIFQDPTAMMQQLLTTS
YEATS2 YEATS domain, sequence (Q9ULM3 200-345 limits assumed): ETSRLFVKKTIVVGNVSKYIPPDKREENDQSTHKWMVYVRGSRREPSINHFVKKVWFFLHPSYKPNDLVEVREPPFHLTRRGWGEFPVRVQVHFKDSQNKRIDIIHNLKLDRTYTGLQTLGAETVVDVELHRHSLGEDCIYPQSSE

The term IC50 denotes the concentration that inhibits the measured activity by half. One may read the EC50 as the concentration that produces a half-maximal response. With `CC(C)NC(=O)c1ccc2nc(-c3cccc(NS(=O)(=O)NCCc4c[nH]cn4)c3)cn2c1` [compound 7], the IC50 came out at 230 nM on ENL YEATS domain [1] (ENL YEATS HTRF IC50, purified compound) and 232 nM at ENL YEATS domain [1] (setting [11]). Also, on ENL YEATS domain [1] (HTRF IC50 ratio), the “improvement in potency compared to the initial screening hit” value came to 30 fold. At ENL(YEATS)-HiBiT, a half-maximal effect (EC50) was put at 1500 nM.

The DC50 is the concentration giving 50% degradation. For `O=C(COc1cccc2c1C(=O)N(C1CCC(=O)NC1=O)C2=O)NCCOCCOCCNS(=O)(=O)Nc1cccc(-c2cn3cc(C(=O)NC4CCC4)ccc3n2)c1` (stereo not drawn) [SR-1114, N-Cyclobutyl-2-(3-((N-(2-(2-(2-(2-((2-(2,6-dioxopiperidin-3-yl)-1,3-dioxoisoindolin-4-yl)oxy)acetamido)ethoxy)ethoxy)ethyl)sulfamoyl)amino)phenyl)imidazo[1,2-a]pyridine-6-carboxamide], at ENL [2] (10 μM), the “time ENL degradation is sustained by a single dose” value is recorded as 24 h. For the same compound, at ENL [2] (10 μM, MV4;11 cells), the “time to maximal ENL degradation” value is recorded as no more than 4 h. Besides, the DC50 at ENL [2] (MOLM-13 cells) amounted to 311 nM; at ENL [2] (OCI/AML-2 cells) it was 1650 nM. Also, the “degradation of exogenously expressed AF9-V5” value at AF9 (V5) is on record as “degraded”. Further, in the data set with MV4;11 cells [3], the “off-target degradation of IKZF1” value is recorded as “weak off-target degradation”. For the same compound, the “change in ENL abundance across the proteome” value in the data set on MV4;11 cells [3] (4 and 16 h) was “strongest change in abundance across the proteome”. Besides, the “abundance of ENL target genes (HOXA10, MYC, MYB, FLT3, ZEB2, SATB1)” value with MV4;11 cells [3] (16 h) was “preferential suppression of multiple ENL target genes”. Moreover, the “abundance of myeloid differentiation marker CD11b” value in the data set with MV4;11 cells [3] (16 h) is “increased the abundance”.

With `O=C(NC1CCC1)c1ccc2nc(-c3cccc(NS(=O)(=O)NCCN4CCCCC4)c3)cn2c1` [SR-0813, N-Cyclobutyl-2-(3-((N-(2-(piperidin-1-yl)ethyl)sulfamoyl)amino)phenyl)imidazo[1,2-a]pyridine-6-carboxamide], the “activity against BRD4 BD1 by HTRF” value at BRD4 BD1 is “inactive”. Also, at AF9(YEATS)-HiBiT, the EC50 was 76 nM. Moreover, at AF9 YEATS domain, the IC50 was determined as 311 nM. Besides, the “abundance of the ITGAM transcript (CD11b)” value in the data set with MV4;11 cells [4] (MV4;11) is listed as “increased abundance”. Moreover, the “transcript abundance of HOXA9, MEIS1 and MYC” value in the data set on MV4;11 cells [4] (MV4;11, from 3 h to at least 3 days, 1 and 10 μM) is given as “downregulated”. Also, in the data set with MV4;11 cells [4] (MV4;11, most prominent at 10 μM), the “transcript abundance of HMGCR and HMGCS1 (SREBP targets, off-target effect)” value was “upregulation”. Also, in the data set on MV4;11 cells [5], the “expression of ENL target genes (3′ mRNA-seq)” value is listed as “strikingly selective suppression of ENL target genes”. The “global gene expression (3′ mRNA-seq)” value in the data set on MV4;11 cells [5] was “did not elicit global changes in gene expression”. Also, the “effect on cell growth” value with MOLM-13 was “inhibited the growth”; in the data set on HL-60, “unaffected; also recorded: muted antiproliferative activity”; in the data set with OCI/AML-2, “inhibited the growth”; in the data set with HB11;19, “inhibited the growth”; in the data set on 786-O, “neither the T-cell ALL cell line, MOLT-4, nor the renal cell carcinoma cell line, 786-O, were affected”; with MOLT-4, “neither the T-cell ALL cell line, MOLT-4, nor the renal cell carcinoma cell line, 786-O, were affected”. In addition, the “effect on cell growth” value in the data set with JURKAT was “unaffected; also recorded: muted antiproliferative activity”; in the data set on MV4;11, “inhibited the growth”. In addition, the “ENL ChIP-seq signal genome-wide” value on ENL [6] (MV4;11) is reported as “bulk displacement of ENL from chromatin”. At ENL [6] (MV4;11, 4 h), the “ENL ChIP-qPCR enrichment at ENL binding sites (HOXA10 gene body, MYB promoter)” value was “dose-dependent eviction of ENL”. Besides, the “ENL recognition of acetyllysine on histone peptide arrays” value on ENL YEATS domain [7] is recorded as “completely inhibited”. For the same compound, the “number of kinases identified as potential off targets (KINOMEscan, scanMAX)” value in the data set with 468 kinases is reported as 4. Besides, the “bromodomain off targets (BROMOscan, bromoMAX)” value with 32 bromodomains is “not a single bromodomain off target was identified”. For the same compound, the “lower affinity for YSK4 than for ENL YEATS” value in data set [8] is on record as “over 100 fold”. Also, the “binding to the YEATS4 YEATS domain by SPR” value on YEATS4 YEATS domain is listed as “virtually no binding”. The “YEATS2 recognition of acetyllysine on histone peptide arrays” value at YEATS2 YEATS domain is given as “minimal effects”. In addition, the effect on viability result in the data set with MV4;11 cells [9] is on record as “minimal effects”. Moreover, in the data set on MV4;11 cells [10], the cell cycle distribution result is recorded as “decrease in the number of cells at the G2 stage of the cell cycle”.

`CC(C)N(C)C(=O)c1ccc2nc(-c3ccccc3)cn2c1` [compound 2, N-Isopropyl-N-methyl-2-phenylimidazo[1,2-a]pyridine-6-carboxamide]: at ENL YEATS domain [1], the “activity against ENL YEATS” value is given as “complete ablation of activity”. At ENL YEATS domain [1] (setting [11]), this compound returned an IC50 greater than 50000 nM. Moreover, the EC50 at ENL(YEATS)-HiBiT was greater than 20000 nM.
